Consider 15 compounds from ChEMBL document CHEMBL3853284, “Bioactive Dihydro-β-agarofuran Sesquiterpenoids from the Australian Rainforest Plant Maytenus bilocularis” (J Nat Prod, 2016).

Test [1] deals with T1, Large neutral amino acids transporter small subunit 3 (Homo sapiens, UniProt O75387).
T1 sequence (O75387 whole entry): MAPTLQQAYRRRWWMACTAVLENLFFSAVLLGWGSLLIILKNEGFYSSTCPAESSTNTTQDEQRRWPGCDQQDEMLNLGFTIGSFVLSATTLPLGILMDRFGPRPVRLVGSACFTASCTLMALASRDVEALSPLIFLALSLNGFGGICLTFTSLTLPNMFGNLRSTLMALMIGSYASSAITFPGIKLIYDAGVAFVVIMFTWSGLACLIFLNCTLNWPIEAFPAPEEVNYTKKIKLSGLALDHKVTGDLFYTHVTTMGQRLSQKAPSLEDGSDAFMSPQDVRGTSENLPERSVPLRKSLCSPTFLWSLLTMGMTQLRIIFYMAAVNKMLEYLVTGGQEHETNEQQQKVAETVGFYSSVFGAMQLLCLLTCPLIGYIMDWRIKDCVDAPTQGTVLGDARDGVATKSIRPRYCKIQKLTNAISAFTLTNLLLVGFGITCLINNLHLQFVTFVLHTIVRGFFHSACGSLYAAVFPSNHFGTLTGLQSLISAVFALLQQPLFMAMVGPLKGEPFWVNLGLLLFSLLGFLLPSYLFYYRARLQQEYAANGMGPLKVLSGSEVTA
In words: Inhibition of LAT3 in human LNCAP cells assessed as inhibition of [3H]L-leucine uptake after 15 mins by liquid scintillation counting method. Type of test: cell-based.

For another test, the system named is CCRF-CEM VCR/R. In words: Inhibition of P-gp in human CCRF-CEM VCR/R cells assessed as potentiation of vinblastin-induced cytotoxicity at 5 uM after 72 hrs by Alamar blue assay relative to control. It counts as cell-based.
A short description of test [2]: Potentiation of vinblastin-induced cytotoxicity against human CEM cells at 5 uM after 72 hrs by Alamar blue assay relative to control. It counts as functional, CCRF-CEM. Background: Resazurin is reduced to fluorescent resorufin, in cell work by metabolically active cells.
A short description of test [3]: Cytotoxicity against human LNCAP cells assessed as cell viability inhibition at 10 uM after 72 hrs by Alamar blue assay. It counts as functional.
Test [4] concerns the target T2, Large neutral amino acids transporter small subunit 3 (Homo sapiens) (UniProt O75387).
T2 sequence (whole entry): T1 sequence (O75387 whole entry)
In words: Inhibition of LAT3 in human LNCAP cells assessed as inhibition of [3H]L-leucine uptake at 10 uM after 15 mins by liquid scintillation counting method relative to control. Type of test: cell-based.

The target of test [5] is T2, Large neutral amino acids transporter small subunit 3 (Homo sapiens). In words: Inhibition of LAT3 in human LNCAP cells assessed as inhibition of [3H]L-leucine uptake at 10 mM after 15 mins by liquid scintillation counting method relative to control. Type of test: cell-based.

For orientation: IC50 means the concentration needed to halve the response being measured. The term inhibition denotes the change of the read-out against control, counted positive when it falls.

As for `CC(=O)OC[C@@]12[C@@H](OC(C)=O)CC[C@@H](C)[C@]13OC(C)(C)[C@H](C(=O)[C@H]2OC(=O)c1ccccc1)[C@H]3OC(C)=O`, the IC50 in test [1] was 151 µM. The fold change (FC) amounted to 50.6 with CCRF-CEM VCR/R and 1.9 in test [2]. Besides, the inhibition at 10 µM in test [3] was more than 30%.
Consider `CC(=O)OC[C@@]12[C@@H](OC(C)=O)CC[C@@H](C)[C@]13OC(C)(C)[C@H]([C@@H](O)[C@@H]2OC(=O)c1ccccc1)[C@H]3OC(C)=O`, for which the inhibition at 10 µM in test [3] is more than 30%.
For the compound `COc1ccc(CCN(C)CCCC(C#N)(c2ccc(OC)c(OC)c2)C(C)C)cc1OC` (stereo not given) [VERAPAMIL], the fold change (FC) in the test with CCRF-CEM VCR/R was found to be 64.5; in test [2], 2.8. Further, the inhibition in test [4] is 82.7%.
In the case of `COCC(=O)O[C@@H]1[C@@H]2[C@@H](OC(C)=O)[C@]3(OC2(C)C)[C@H](C)CC[C@H](OC(C)=O)[C@@]3(COC(C)=O)[C@@H]1OC(=O)c1ccccc1`, in test [3], the inhibition at 10 µM is more than 30%.
Regarding `CC(=O)OC[C@@]12[C@@H](OC(C)=O)CC[C@@H](C)[C@]13OC(C)(C)[C@H]([C@@H](O)[C@H]2OC(=O)c1ccccc1)[C@H]3OC(C)=O`, the concentration for half-maximal inhibition (IC50) in test [1] is 124 µM. Moreover, the fold change (FC) with CCRF-CEM VCR/R was 36.3; in test [2] it was 1.7. Besides, the inhibition at 10 µM in test [3] is more than 30%.
Turning to `CC(=O)OC[C@@]12[C@@H](OC(C)=O)CC[C@@H](C)[C@]13OC(C)(C)[C@H]([C@@H](OC(=O)c1ccccc1)[C@H]2OC(=O)c1ccccc1)[C@H]3OC(C)=O`, the values for the fold change (FC) (in the test with CCRF-CEM VCR/R; in test [2]) were 131 and 2.1, respectively. Also, the inhibition at 10 µM in test [3] worked out at 21.2%.
As for `CC(=O)OC[C@@]12[C@@H](OC(C)=O)CC[C@@H](C)[C@]13OC(C)(C)[C@H]([C@@H](OC(C)=O)[C@H]2OC(=O)c1ccccc1)[C@H]3OC(C)=O`, the inhibition at 10 µM in test [3] was more than 30%.
In the case of `CC(=O)O[C@@H]1[C@@H]2[C@@H](OC(C)=O)[C@]3(OC2(C)C)[C@H](C)CC[C@H](OC(C)=O)[C@@]3(C)[C@@H]1OC(=O)c1ccccc1`, the half-inhibitory concentration (IC50) in test [1] was found to be 15.5 µM. Further, the fold change (FC) in the test with CCRF-CEM VCR/R is 61; in test [2], 2. Moreover, the inhibition at 10 µM in test [3] is 14.6%.
`CC(=O)OC[C@@]12[C@@H](OC(C)=O)CC[C@@H](C)[C@]13OC(C)(C)[C@H]([C@@H](OC(=O)C(C)(C)C)[C@H]2OC(=O)c1ccccc1)[C@H]3OC(C)=O`: the fold change (FC) in the test with CCRF-CEM VCR/R came to 124; in test [2], 1.5. In addition, the inhibition at 10 µM in test [3] is 25.6%.
With `CC(=O)OC[C@@]12[C@@H](OC(C)=O)CC[C@@H](C)[C@]13OC(C)(C)[C@H](C[C@@H]2OC(=O)c1ccccc1)[C@H]3OC(C)=O`, the inhibition at 10 µM in test [3] was more than 30%.
Take `CC(=O)O[C@H]1CC[C@@H](C)[C@]23OC(C)(C)[C@H]([C@@H](O)[C@@H](OC(=O)c4ccccc4)[C@]12C)[C@H]3OC(C)=O`: the inhibition at 10 µM in test [3] is more than 30%.
Still for that read-out and setting: to `CC(=O)O[C@H]1CC[C@@H](C)[C@]23OC(C)(C)[C@H](C[C@H](OC(=O)c4ccccc4)[C@]12C)[C@H]3OC(C)=O` belongs more than 30%.
For the compound `NC1(C(=O)O)CC2CCC1C2` (stereo not given), in test [5], the inhibition came to 40.2%.
Regarding `CC(=O)OC[C@@]12[C@@H](OC(C)=O)CC[C@@H](C)[C@]13OC(C)(C)[C@H]([C@@H](OC(C)=O)[C@H]2OC(=O)c1ccccc1)[C@H]3O`, the inhibition at 10 µM in test [3] is more than 30%.
On the same count and under the same terms, the result for `CC(=O)OC[C@@]12[C@@H](OC(C)=O)CC[C@@H](C)[C@]13OC(C)(C)[C@H]([C@@H](OC(=O)c1ccc(Br)cc1)[C@H]2OC(=O)c1ccccc1)[C@H]3OC(C)=O` reads more than 30%.
